Laboratory results taken from patent US9657018B2, “Antagonists acting at multiple prostaglandin receptors for the treatment of inflammation” (Allergan, Inc., priority 2014, dated 2017).
Counter-ions that a name gives are not always drawn.

Experiments:
Type in all cases: cell-based
[1] = target: T1, human prostanoid EP2 receptor (Homo sapiens, UniProt P43116); assay: FLIPR Ca2+ signaling antagonist assay, EP2 receptor stable cell line; parameters: key to FLIPR data EP2 (Kb): PAg = partial agonist; Ag = agonist; NA = not active; details: human recombinant EP2 + chimeric Gqs in HEK-293 EBNA cells; standard agonist PGE2; NA = no antagonism or Kb>=10,000 nM
T1 construct: expressed in transfected cells
Experimental: (§1) The above compounds were tested for PG antagonist activity as follows using human recombinant prostanoid receptor (DP1, EP1-4, FP, IP and TP) stable cell lines:
(§2) In order to measure the response of Gs and Gi coupled prostanoid receptors as a Ca^2+ signal, chimeric G protein cDNAs were used. Stable cell lines over-expressing human prostanoid DP1, EP1-4, FP, IP, and TP receptors were established as follows:
(§3) Briefly, human prostanoid DP1, EP2, and EP4 receptor cDNAs were co-transfected with chimeric Gqs cDNA containing a haemagglutanin (HA) epitope; human prostanoid EP3 receptors were co-transfected with chimeric Gqi-HA; human EP1, FP, IP, and TP receptor cDNAs were expressed with no exogenous G-proteins. Gqs and Gqi chimeric cDNAs (Molecular Devices, Sunnyvale, Calif., U.S.A.), as well as cDNAs of prostanoid receptors, were cloned into a pCEP4 vector with a hygromycin B selection marker. Transfection into HEK-293 EBNA (Epstein-Barr virus nuclear antigen) cells was achieved by the FuGENE 6 transfection Reagent (Roche Applied Science, Indianapolis, Ind., USA). Stable transfectants were selected according to hygromycin resistance. Because Gqs and Gqi contained an HA epitope, G-protein expression was detected by Western blotting analysis using anti-mouse HA monoclonal antibody and horseradish peroxidase (HRP)-conjugated secondary antibody, while functional expression of prostanoid receptors was detected by FLIPR screening (Matias et al., 2004). These stable cell lines were validated using previously published antagonists at 10 μM against serial dilutions of standard agonists by FLIPR functional assays for Ca^2+ Signaling (as described below).
(§4) Ca^2+ signaling studies were performed using a FLIPR TETRA system (Molecular Devices, Sunnyvale, Calif., USA) in the 384-format. This is a high-throughput instrument for cell-based assays to monitor Ca^2+ signaling associated with GPCRs and ion channels. Cells were seeded at a density of 5×10^4 cells/well in BioCoat poly-D-lysine coated, black wall, clear bottom 384-well plates (BD Biosciences, Franklin lakes, NJ, USA) and allowed to attach overnight in an incubator at 37° C. The cells were then washed twice with HBSS-HEPES buffer (Hanks' balanced salt solution without bicarbonate and phenol red, 20 mM HEPES, pH 7.4) using an ELx405 Select CW Microplate Washer (BioTek, Winooski, Vt., USA). After 60 min of dye-loading in the dark using the Ca^2+-sensitive dye Fluo-4AM (Invitrogen, Carlsbad, Calif., USA), at a final concentration of 2×10^−6M, the plates were washed 4 times with HBSS-HEPES buffer to remove excess dye and leaving 50 μl of buffer in each well. The plates were then placed in the FLIPR TETRA instrument and allowed to equilibrate at 37° C. AGN-211377 was added in a 25 μl volume to each well to give final concentrations of 0.1 μl. M, 0.4M, 1 μM, 3 μl. M, 10 μl. M, and 30 μl. M; or 0.067 μM, 0.4M, 0.67 μM, and 1 μM for cells over-expressing TP receptors. After 4.5 minutes, a 7-point serial dilution of the standard agonist for the corresponding receptor, in a 25 μl volume was injected at the final concentrations from 10^−11M to 10^−5M in 10-fold serial dilution increments for cells expressing human recombinant DP1, EP1, EP2, EP3, EP4, FP, and IP receptors. The dose range for the standard agonist for human recombinant TP receptors was from 10^−12M to 10^−6M. HBSS-HEPES buffer was used as the negative control for the standard agonists. Cells were excited with LED (light emitting diode) excitation at 470-495 nm and emission was measured through an emission filter at 515-575 nm. Assay plates were read for 3.5 minutes using the FLIPR^TETRA. The peak increase in fluorescence intensity was recorded for each well. On each plate, negative controls, dose response of positive controls, and co-treatments of antagonist-agonist for each dose were in triplicates. Standard agonists were as follows: DP=BW 245C, EP1-EP4=PGE2, FP=17-phenyl-PGF2a, IP=Cicaprost, and TP=U-46619. […]

[2] = target: T2, human prostanoid EP1 receptor (Homo sapiens, UniProt P34995); assay: FLIPR Ca2+ signaling antagonist assay, EP1 receptor stable cell line; details: human recombinant EP1 in HEK-293 EBNA cells; standard agonist PGE2; NA = no antagonism or Kb>=10,000 nM
T2 construct: expressed in transfected cells
T2 sequence (P34995 1-402): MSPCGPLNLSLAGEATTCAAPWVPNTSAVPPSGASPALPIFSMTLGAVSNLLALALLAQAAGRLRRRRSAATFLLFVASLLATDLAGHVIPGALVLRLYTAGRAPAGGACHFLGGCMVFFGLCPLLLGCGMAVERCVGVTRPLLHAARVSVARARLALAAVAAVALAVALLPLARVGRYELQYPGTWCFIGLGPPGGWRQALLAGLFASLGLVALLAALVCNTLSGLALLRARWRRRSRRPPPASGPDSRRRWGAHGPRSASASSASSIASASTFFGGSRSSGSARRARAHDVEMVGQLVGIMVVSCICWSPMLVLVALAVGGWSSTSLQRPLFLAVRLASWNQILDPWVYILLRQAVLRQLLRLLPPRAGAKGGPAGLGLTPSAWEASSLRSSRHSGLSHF
Experimental: as §1, §2, §3, §4

[3] = target: T3, human prostanoid FP receptor (Homo sapiens, UniProt P43088); assay: FLIPR Ca2+ signaling antagonist assay, FP receptor stable cell line; details: human recombinant FP in HEK-293 EBNA cells; standard agonist 17-phenyl-PGF2a; NA = no antagonism or Kb>=10,000 nM
T3 construct: expressed in transfected cells
Experimental: as §1, §2, §3, §4

[4] = target: T4, human prostanoid TP receptor (Homo sapiens, UniProt P21731); assay: FLIPR Ca2+ signaling antagonist assay, TP receptor stable cell line; parameters: key to FLIPR data TP (Kb): PAg = partial agonist; Ag = agonist; NA = not active; details: human recombinant TP in HEK-293 EBNA cells; standard agonist U-46619; NA = no antagonism or Kb>=10,000 nM
T4 construct: expressed in transfected cells
T4 sequence (P21731 1-343): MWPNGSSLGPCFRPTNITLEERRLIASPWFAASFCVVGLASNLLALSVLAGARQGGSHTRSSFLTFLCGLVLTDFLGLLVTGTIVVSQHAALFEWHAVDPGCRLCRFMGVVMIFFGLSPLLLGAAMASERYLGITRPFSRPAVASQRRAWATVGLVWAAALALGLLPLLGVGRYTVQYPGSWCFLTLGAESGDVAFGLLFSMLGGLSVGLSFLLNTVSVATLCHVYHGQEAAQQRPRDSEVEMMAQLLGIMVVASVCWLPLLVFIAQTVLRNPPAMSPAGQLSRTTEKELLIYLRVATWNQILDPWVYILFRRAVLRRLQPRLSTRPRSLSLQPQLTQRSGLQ
Experimental: as §1, §2, §3, §4

T3 sequence (P43088 whole entry): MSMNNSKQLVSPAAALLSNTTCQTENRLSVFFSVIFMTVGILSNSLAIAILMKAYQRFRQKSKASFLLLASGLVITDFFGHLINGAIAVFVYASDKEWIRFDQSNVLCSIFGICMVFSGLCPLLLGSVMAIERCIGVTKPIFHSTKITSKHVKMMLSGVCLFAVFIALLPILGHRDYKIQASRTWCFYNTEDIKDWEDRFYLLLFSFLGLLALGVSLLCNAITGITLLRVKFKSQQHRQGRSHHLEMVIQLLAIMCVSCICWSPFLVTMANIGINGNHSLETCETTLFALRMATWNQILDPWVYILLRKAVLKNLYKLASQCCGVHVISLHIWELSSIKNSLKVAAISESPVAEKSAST
T1 sequence (P43116 whole entry): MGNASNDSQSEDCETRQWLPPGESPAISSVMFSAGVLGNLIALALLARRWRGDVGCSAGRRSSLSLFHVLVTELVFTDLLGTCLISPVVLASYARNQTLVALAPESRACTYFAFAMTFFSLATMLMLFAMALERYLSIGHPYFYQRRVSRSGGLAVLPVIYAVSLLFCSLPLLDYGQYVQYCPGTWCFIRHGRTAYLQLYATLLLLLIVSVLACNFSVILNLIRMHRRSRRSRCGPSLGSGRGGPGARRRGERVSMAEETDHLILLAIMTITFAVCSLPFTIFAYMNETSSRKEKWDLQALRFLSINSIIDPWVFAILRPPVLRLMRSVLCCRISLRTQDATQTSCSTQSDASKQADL

| SMILES | Kb [1] | Kb [2] | Kb [3] | Kb [4] | FLIPR data EP2 (Kb) [1] | FLIPR data TP (Kb) [4] |
| --- | --- | --- | --- | --- | --- | --- |
| CC(C)Cn1ncc2cc(Cl)cc(Cn3ncc4cc(C(=O)O)ccc43)c21 [Compound 41, 1-(5-Chloro-1-isobutyl-1H-indazol-7-ylmethyl)-1H-indazole-5-carboxylic acid] | 9.2 µM | 0.73 µM | 0.07 µM | 0.04 µM |  |  |
| CC(C)Cn1ncc2cc(Br)cc(Cn3ncc4cc(C(=O)O)ccc43)c21 [Compound 42, 1-(5-Bromo-1-isobutyl-1H-indazol-7-ylmethyl)-1H-indazole-5-carboxylic acid] | > 10 µM | 2.3 µM | 0.04 µM | 0.16 µM |  |  |
| CC(C)Cn1ncc2cc(F)cc(Cn3ncc4cc(C(=O)O)ccc43)c21 [Compound 43, 1-(5-Fluoro-1-isobutyl-1H-indazol-7-ylmethyl)-1H-indazole-5-carboxylic acid] | > 10 µM | > 10 µM | 0.7 µM | 0.45 µM |  |  |
| CC(C)Cn1ncc2cc(C(F)(F)F)cc(Cn3ncc4cc(C(=O)O)ccc43)c21 [Compound 44, 1-(1-Isobutyl-5-trifluoromethyl-1H-indazol-7-ylmethyl)-1H-indazole-5-carboxylic acid] |  | 1.5 µM | 0.15 µM |  | PAg | Ag |
| CC(C)Cn1ncc2cc(OC(F)(F)F)cc(Cn3ncc4cc(C(=O)O)ccc43)c21 [Compound 45, 1-(1-Isobutyl-5-trifluoromethoxy-1H-indazol-7-ylmethyl)-1H-indazole-5-carboxylic acid] | > 10 µM | 0.8 µM | 0.08 µM |  |  | Ag |
| CC(C)n1ncc2cc(Br)cc(Cn3ncc4cc(C(=O)O)ccc43)c21 [Compound 46, 1-(5-Bromo-1-isopropyl-1H-indazol-7-ylmethyl)-1H-indazole-5-carboxylic acid] | > 10 µM | 3 µM | 0.2 µM | 1.4 µM |  |  |
| CCC(CC)Cn1ncc2cc(Br)cc(Cn3ncc4cc(C(=O)O)ccc43)c21 [Compound 47, 1-[5-Bromo-1-(2-ethyl-butyl)-1H-indazol-7-ylmethyl]-1H-indazole-5-carboxylic acid] | 5 µM | 0.5 µM | 3 µM | 0.7 µM |  |  |
| CCCn1ncc2cc(Cl)cc(Cn3ncc4cc(C(=O)O)ccc43)c21 [Compound 48] | > 10 µM | > 10 µM | 0.5 µM | 0.74 µM |  |  |
| CC(C)Cn1ncc2cc(Cl)cc(Cn3ncc4cc(C(=O)O)cnc43)c21 [Compound 49, 1-(5-Chloro-1-isobutyl-1H-indazol-7-ylmethyl)-1H-pyrazolo[3,4-b]pyridine-5-carboxylic acid] | > 10 µM | 9.8 µM | 1.9 µM | 0.17 µM |  |  |
| CC(C)Cn1ncc2cc(Cl)cc(Cn3cnc4cc(C(=O)O)ccc43)c21 [Compound 50, 1-(5-Chloro-1-isobutyl-1H-indazol-7-ylmethyl)-1H-benzoimidazole-5-carboxylic acid] | > 10 µM | > 10 µM | > 10 µM | 5 µM |  |  |
| CC(C)Cn1ncc2cc(Cl)cc(Cn3cnc4cc(C(=O)O)cnc43)c21 [Compound 51, 3-(5-Chloro-1-isobutyl-1H-indazol-7-ylmethyl)-3H-imidazo[4,5-b]pyridine-6-carboxylic acid] | > 10 µM | > 10 µM | 4.9 µM | 0.28 µM |  |  |

Second part, the compound after the results:

| Kb [1] | Kb [2] | Kb [3] | Kb [4] | FLIPR data EP2 (Kb) [1] | FLIPR data TP (Kb) [4] | SMILES |
| --- | --- | --- | --- | --- | --- | --- |
| > 10 µM | 0.6 µM | 0.7 µM | 0.02 µM |  |  | CC(C)Cn1ncc2cc(Cl)cc(Cn3ccc4cc(C(=O)O)cnc43)c21 [Compound 52, 1-(5-Chloro-1-isobutyl-1H-indazol-7-ylmethyl)-1H-pyrrolo[2,3-b]pyridine-5-carboxylic acid] |
| > 10 µM | 5.7 µM | 0.07 µM | 1 µM |  |  | Cc1nn(Cc2cc(Br)cc3cnn(CC(C)C)c23)c2ccc(C(=O)O)cc12 [Compound 53, 1-(5-Bromo-1-isobutyl-1H-indazol-7-ylmethyl)-3-methyl-1H-indazole-5-carboxylic acid] |
| > 10 µM | > 10 µM | 0.6 µM | 1.6 µM |  |  | Cc1nn(Cc2cc(Br)cc3cnn(CC(C)C)c23)c2ncc(C(=O)O)cc12 [Compound 54, 1-(5-Bromo-1-isobutyl-1H-indazol-7-ylmethyl)-3-methyl-1H-pyrazolo[3,4-b]pyridine-5-carboxylic HCl salt] |
| > 10 µM | 4 µM | 3 µM |  |  | Ag | CC(C)Cn1ncc2cc(C(F)(F)F)cc(Cn3cnc4cc(C(=O)O)ccc43)c21 [Compound 55, 1-(1-Isobutyl-5-trifluoromethyl-1H-indazol-7-ylmethyl)-1H-benzoimidazole-5-carboxylic acid] |
| > 10 µM | 9 µM | > 10 µM | 0.03 µM |  |  | CC(C)Cn1ncc2cc(OC(F)(F)F)cc(Cn3cnc4cc(C(=O)O)ccc43)c21 [Compound 56, 1-(1-Isobutyl-5-trifluoromethoxy-1H-indazol-7-ylmethyl)-1H-benzoimidazole-5-carboxylic acid] |
| > 10 µM | > 10 µM | 0.6 µM | > 10 µM |  |  | CC(C)Cn1ncc2cc(Cl)cc(Cc3ncc4cc(C(=O)O)ccn34)c21 [Compound 61, 3-[(5-Chloro-1-isobutyl-indazol-7-yl)methyl]imidazo[1,5-a]pyridine-7-carboxylic acid] |
